The text below walks through data of ChEMBL document CHEMBL5550093, “Design, synthesis and antitumor activity of 2-substituted quinazoline-4-amine derivatives” (Bioorg Med Chem, 2024).

The term IC50 denotes the concentration that inhibits the measured activity by half. Low values mean greater potency, high ones weaker potency. For orientation: inhibition means the relative decrease from the control value, in per cent. As usually defined, the IC20 is the point of the concentration-response curve where the effect stands at 20%. Read a high IC20 as a need for much substance.

The subject of data set [1] is HeLa. Nature of the data set: Antiproliferative activity against human HeLa cells incubated for 48 hrs by MTT assay. The format is functional, cell-based. A general note: Tetrazolium dyes change colour on reduction, which living cells bring about.
Data set [2] concerns A549. Description: Antiproliferative activity against human A549 cells at 5 uM incubated for 48 hrs by MTT assay relative to control. The format is functional.
For data set [3], the system named is PC-3. Description: Antiproliferative activity against human PC-3 cells incubated for 48 hrs by MTT assay. In kind it is functional, cell-based. Particulars: for IC50: PC-3, 48 h; for IC20: PC-3, time 48 hrs.
Data set [4] concerns PC-3. Description: Antiproliferative activity against human PC-3 overexpressing WRN cells incubated for 48 hrs by MTT assay. In kind it is functional.
Data set [5] relates to HeLa. Nature of the data set: Antiproliferative activity against human HeLa cells at 5 uM incubated for 48 hrs by MTT assay relative to control. In kind it is functional.
Data set [6] concerns A549. Nature of the data set: Antiproliferative activity against human A549 cells incubated for 48 hrs by MTT assay. The format is functional, cell-based. Particulars: A549, 48 h.
Data set [7] is described as follows: Antiproliferative activity against HEK293T cells at 5 uM incubated for 48 hrs by MTT assay relative to control. The format is toxicity, cell-based, HEK-293T. Particulars: human.
Data set [8] deals with K562. Nature of the data set: Antiproliferative activity against human K562 cells at 5 uM incubated for 48 hrs by MTT assay relative to control. The format is functional.
Data set [9] concerns PC-3. Nature of the data set: Antiproliferative activity against human PC-3 cells at 5 uM incubated for 48 hrs by MTT assay relative to control. In kind it is functional.
Data set [10] deals with K562. Description: Antiproliferative activity against human K562 cells incubated for 48 hrs by MTT assay. In kind it is functional, cell-based. Particulars: K562, 48 h.
The nature of data set [11]: Antiproliferative activity against HEK293T cells incubated for 48 hrs by MTT assay. In kind it is toxicity, cell-based, HEK-293T. Particulars: human.
For data set [12], the system named is PC-3. Nature of the data set: Inhibition of cell survival in human PC-3 cells at 1000 nM pretreated for 48 hrs followed by fresh media replacement without compound measured after 2 weeks by colony formation assay. In kind it is functional, cell-based.

Calls of active or inactive are those of the source. The calls are words filed in the database; no cut-off is given here.

For `COc1ccc(N(C)c2nc(C(F)(F)c3cccc(OC)c3)nc3ccccc23)cc1`, the IC50 is more than 10 µM in the data set on HeLa [1], 5.6 µM in the data set with PC-3 [3], more than 10 µM in the data set on A549 [6] and 0.3 µM in the data set on K562 [10]. Further, the inhibition at 5 µM worked out at 52.7% with A549 [2], 47.8% with HeLa [5], 61.3% with K562 [8] and 57.6% with PC-3 [9]. The IC20 in the data set with PC-3 [3] stood at 0.25 µM; with PC-3 [4] it was 0.144 µM. This compound returned an inhibition at 48 h, 5 µM in data set [7] of 56.6%. Further, in [11], it took 2.1 µM to reach half-maximal inhibition (IC50 at 48 h).
As to `COc1cccc(C(F)(F)c2nc(N(C)c3ccc(OC)c(OC)c3)c3ccccc3n2)c1`, the IC50 in the data set with HeLa [1] is more than 10 µM; in the data set with PC-3 [3] it was more than 10 µM; with A549 [6] it was more than 10 µM; in the data set with K562 [10], 0.05 µM. The inhibition at 5 µM was found to be 53.2% in the data set with A549 [2], 51.2% with HeLa [5], 65.5% in the data set on K562 [8] and 62.7% in the data set on PC-3 [9]. Further, the figures for the concentration for an effect of 20% (IC20) in the data set on PC-3 [3] and in the data set on PC-3 [4] were 0.981 µM and 0.123 µM, respectively. Besides, in the data set with PC-3 [12], the inhibition entry is “Active”. In data set [7], this compound gave an inhibition at 48 h, 5 µM of 63.6%. For the same compound, the IC50 at 48 h in [11] was 1.1 µM.
With `COc1ccc(N(C)c2nc([C@@H](N)C(C)C)nc3ccccc23)cc1`, the IC50 in the data set with HeLa [1] is more than 10 µM; in the data set with PC-3 [3], 8 µM; in the data set on A549 [6], more than 10 µM; in the data set with K562 [10], 8 µM. Further, the inhibition at 5 µM came out at 72.6% in the data set with A549 [2], 33.6% in the data set on HeLa [5], 85.2% with K562 [8] and 51.9% in the data set with PC-3 [9]. Further, the IC20 was found to be 7.61 µM in the data set with PC-3 [3] and 1.11 µM in the data set on PC-3 [4]. For the same compound, the inhibition result with PC-3 [12] is “Active”. This compound also displayed an inhibition at 48 h, 5 µM in data set [7] of 59.2%. Moreover, the IC50 at 48 h in data set [11] came out at 7.9 µM.
With `COc1ccc(N(C)c2nc(C(=O)c3cccc(OC)c3)nc3ccccc23)cc1`, the IC50 in the data set with HeLa [1] was more than 10 µM; with PC-3 [3] it was 6.6 µM; in the data set on A549 [6] it was more than 10 µM; in the data set on K562 [10] it was 9.3 µM. The inhibition at 5 µM with A549 [2] was 52%; in the data set with HeLa [5], 51%; in the data set on K562 [8], 61.5%; with PC-3 [9], 58.1%. In addition, the IC20 with PC-3 [3] stood at 0.975 µM; in the data set with PC-3 [4], 1.07 µM. This compound also returned an inhibition at 48 h, 5 µM in [7] of 59.6%. In [11], this compound came in with an IC50 at 48 h of 6.4 µM.
